Where a SMILES comes first, the peptide text is derived from it.
Test system: pituitaries
Assay: In vitro growth hormone release study (incubated rat pituitaries, GH by RIA)
Format: cell-based
Conditions: GH released at I3, I4 (I5) minus P2, mean ± SEM
Procedure: Female rats of the CD-1 strain were housed in a constant temperature room at 24° C. with 14 hours light and 10 hours darkness. The rats were fed Purina brand rat chow ab libitum. All studies were started between 0800 and 1000 hours.
Pituitaries were removed from 20 day old female rats. In each polytetrafluoroethylene beaker (10 ml) was incubated two pituitaries at 36° C. in 1 ml of lactated Ringer's solution in a Dubnoff Shaker (90 cycles/min.). All medium in each beaker was removed each hour (e.g., P1, P2, I3, I4, I5) and then fresh medium was added back to each beaker. Each medium removed was assayed for GH, in duplicate, by a standard radioimmunoassay (RIA).
The growth hormone agonist of Example 1 was not added to the incubation mediums employed during the first hour of the incubation period (P1) or to the incubation mediums employed during the second hour of the incubation period (P2). The growth hormone agonist of Example 1 was dissolved in dimethylsulfoxide (DMSO; 10:1, agonist:DMSO), added to each incubation medium employed during the third hour of the incubation period (I3), to each medium employed during the fourth hour of the incubation period (I4), and, when performed, to each medium employed during the fifth hour of the incubation period (I5). The release of growth hormone was recorded as ΔGH and calculated by subtracting the amount of GH released at P2 from that released at I3, I4, and, when performed, I5. The agonist activity was determined from the release at I3, I4, and, when performed, I5. The mean of the ΔGH values obtained from the three beakers per dosage level measured at I3, I4, and, when performed, I5 are set forth in Table VI.

[1] = dosage 10 ng/ml incubation medium
[2] = dosage 30 ng/ml incubation medium
[3] = dosage 100 ng/ml incubation medium
[4] = dosage 1,000 ng/ml incubation medium
[5] = dosage 10,000 ng/ml incubation medium
[6] = dosage 300 ng/ml incubation medium

Structure (SMILES) | ΔGH [1] | ΔGH [2] | ΔGH [3] | ΔGH [4] | also measured
C[C@H](NC(=O)[C@@H](Cc1c[nH]c2ccccc12)NC(=O)[C@@H](N)Cc1c[nH]cn1)C(=O)N[C@@H](Cc1c[nH]c2ccccc12)C(=O)N[C@H](Cc1ccccc1)C(=O)N[C@@H](CCCN)C(N)=O [H2 -His-D-Trp-Ala-Trp-D-Phe-Orn-NH2] (HELM PEPTIDE1{H.[dW].A.W.[dF].[Orn].[am]}$$$$V2.0) | 356 ± 92 ng/ml incubation medium | – | – | – | ΔGH (dosage 1 ng/ml incubation medium): -295 ± 93 ng/ml incubation medium
NCCCC[C@H](NC(=O)[C@@H](Cc1ccccc1)NC(=O)[C@H](Cc1c[nH]c2ccccc12)NC(=O)[C@H](CO)NC(=O)[C@@H](Cc1c[nH]c2ccccc12)NC(=O)[C@@H](N)Cc1c[nH]cn1)C(N)=O [H2 -His-D-Trp-Ser-Trp-D-Phe-Lys-NH2] (HELM PEPTIDE1{H.[dW].S.W.[dF].K.[am]}$$$$V2.0) | 161 ± 157 ng/ml incubation medium | 705 ± 149 ng/ml incubation medium | – | – | –
CC(C)[C@H](NC(=O)[C@@H](Cc1c[nH]c2ccccc12)NC(=O)[C@@H](N)Cc1c[nH]cn1)C(=O)N[C@@H](Cc1c[nH]c2ccccc12)C(=O)N[C@H](Cc1ccccc1)C(=O)N[C@@H](CCCCN)C(N)=O [H2 -His-D-Trp-Val-Trp-D-Phe-Lys-NH2] (HELM PEPTIDE1{H.[dW].V.W.[dF].K.[am]}$$$$V2.0) | – | -118 ± 65 ng/ml incubation medium | – | – | –
C[C@H](NC(=O)[C@@H](Cc1c[nH]c2ccccc12)NC(=O)[C@@H](N)Cc1ccc(O)cc1)C(=O)N[C@@H](Cc1c[nH]c2ccccc12)C(=O)N[C@H](Cc1ccccc1)C(=O)N[C@@H](CC(N)=O)C(N)=O [H2 -Tyr-D-Trp-Ala-Trp-D-Phe-Asn-NH2] (HELM PEPTIDE1{Y.[dW].A.W.[dF].N.[am]}$$$$V2.0) | – | 244 ng/ml incubation medium | 528 ± 184 ng/ml incubation medium | 1,670 ± 126 ng/ml incubation medium | –
C[C@H](NC(=O)[C@@H](Cc1c[nH]c2ccccc12)NC(=O)[C@@H](N)Cc1ccc(O)cc1)C(=O)N[C@@H](Cc1c[nH]c2ccccc12)C(=O)N[C@H](Cc1ccccc1)C(=O)N[C@@H](CCC(N)=O)C(N)=O [H2 -Tyr-D-Trp-Ala-Trp-D-Phe-Gln-NH2] (HELM PEPTIDE1{Y.[dW].A.W.[dF].Q.[am]}$$$$V2.0) | 240 ng/ml incubation medium | – | 2,000 ± 523 ng/ml incubation medium | 4,235 ± 785 ng/ml incubation medium | ΔGH [5]: 4,141 ± 576 ng/ml incubation medium
C[C@H](NC(=O)[C@@H](Cc1c[nH]c2ccccc12)NC(=O)[C@@H](N)Cc1ccc(O)cc1)C(=O)N[C@@H](Cc1c[nH]c2ccccc12)C(=O)N[C@H](Cc1ccccc1)C(=O)N[C@@H](CCC(N)=O)C(=O)O [H2 -Tyr-D-Trp-Ala-Trp-D-Phe-Gln-OH] (HELM PEPTIDE1{Y.[dW].A.W.[dF].Q}$$$$V2.0) | – | – | 753 ± 559 ng/ml incubation medium | 2,759 ± 515 ng/ml incubation medium | ΔGH [5]: 3,994 ± 1,214 ng/ml incubation medium
C[C@H](NC(=O)[C@@H](Cc1c[nH]c2ccccc12)NC(=O)[C@@H](N)Cc1ccc(O)cc1)C(=O)N[C@@H](Cc1c[nH]c2ccccc12)C(=O)N[C@H](Cc1ccccc1)C(=O)N[C@@H](CCC(=O)O)C(N)=O [H2 -Tyr-D-Trp-Ala-Trp-D-Phe-Glu-NH2] (HELM PEPTIDE1{Y.[dW].A.W.[dF].E.[am]}$$$$V2.0) | – | 224 ng/ml incubation medium | – | – | ΔGH [6]: 472 ± 104 ng/ml incubation medium; ΔGH (dosage 3,000 ng/ml incubation medium): 1,404 ± 179 ng/ml incubation medium; ΔGH (dosage 30,000 ng/ml incubation medium): 1,909 ± 270 ng/ml incubation medium
CSCC[C@H](NC(=O)[C@@H](Cc1ccccc1)NC(=O)[C@H](Cc1c[nH]c2ccccc12)NC(=O)[C@H](C)NC(=O)[C@@H](Cc1c[nH]c2ccccc12)NC(=O)[C@@H](N)Cc1ccc(O)cc1)C(N)=O [H2 -Tyr-D-Trp-Ala-Trp-D-Phe-Met-NH2] (HELM PEPTIDE1{Y.[dW].A.W.[dF].M.[am]}$$$$V2.0) | – | 456 ± 151 ng/ml incubation medium | – | 1,832 ± 441 ng/ml incubation medium | ΔGH [6]: 1,260 ± 245 ng/ml incubation medium

Reference: US4411890A, “Synthetic peptides having pituitary growth hormone releasing activity” (Beckman Instruments, Inc., priority 1981, dated 1983)
